In article PMC6694155, “PTPσ inhibitors promote hematopoietic stem cell regeneration” (Nature Communications, 2019):
“And” between values parts separate entries of the source, which are not always exact repeats. Identical values can stand only once.

Key:
[1] = target: T1, SHP-1 (Protein-Tyrosine Phosphatase 1C) (Homo sapiens, UniProt P29350); experiment: PhosphataseProfiler screen: SHP-1; format: biochemical; conditions: replicates
T1 construct: purchased Eurofins Pharma Discovery Services UK
Description: (§1) Compound DJ001 was evaluated in a PhosphataseProfiler™ screen at 10 μM and 1 μM (2.7 μg/mL and 0.27 μg/mL) concentrations at Eurofins Pharma Discovery Services UK (Study number UK022-0004033) against a panel of 21 Phosphatases. In each experiment, the respective reference antagonist/agonist was tested directly with DJ001 and the data were compared with historical values determined at Eurofins. DJ001 compound inhibition was calculated as percentage inhibition of the enzymatic activity compared with control.

human CD34+CD38− cells = experiment: Annexin V/7AAD apoptosis assay of irradiated human BM CD34+ cells; format: cell-based
Description: Eight- to ten-week-old female C57BL/6 mice were irradiated with 500 cGy TBI followed by subcutaneous injections of 5 mg/kg DJ001 or vehicle, or 5 mg/kg DJ001 plus 40 mg/kg EHT1864. Twenty four hours after irradiation, mice were killed to collect BM cells for Annexin V apoptosis analysis. BM cells were stained with APC-Cy7-conjugated anti-mouse Sca1 (BD Biosciences, #560654, 1:100), PE-conjugated anti-ckit (BD Biosciences, #553355, 1:100), and V450 lineage cocktail (BD Biosciences, #561301, 1:10) antibodies for 30 min at 4 °C. Cells were then resuspended in 1× Annexin V binding buffer and then stained with FITC-conjugated anti-Annexin V antibody (BD Biosciences, #556547,1:50) and 7AAD antibody (BD Biosciences, #559925, 1:40)[68]. For in vitro human BM cell apoptosis assays, isolated human BM CD34^+ cells were plated into 96-well plates and then irradiated with 300 cGy. Immediately after irradiation, cells were treated with 5 μg/mL DJ001 or vehicle for 24 h and then collected for Annexin V cell apoptosis analysis. For cell cycle analysis, BM KSL cells were irradiated at 300 cGy and then treated with 1 μg/mL DJ001 or vehicle for 36 h. Subsequently, cells were resuspended in 200 μL of PBS, fixed with 1 mL of ice-cold fixation solution (0.25% Saponin, 2.5% PFA, 2% fetal calf serum (FCS) in PBS), and incubated for 30 min on ice. Cells were washed in Saponin buffer (0.25% Saponin, 2% FCS in PBS) and resuspended in 200 μL of Saponin buffer containing 20 μL of FITC-conjugated anti-Ki67 antibody (BD Biosciences, #556026, 1:10) and 1 μL of RNase (Qiagen, #19101, 100 mg/mL). After 30 min of incubation, cells were washed in Saponin buffer and resuspended for flow analysis in 200 μL of Saponin buffer containing 5 μL 7AAD (BD Biosciences, #559925, 1:40).

C57BL/6 mice = experiment: 5FU chemotherapy model, hematologic recovery; format: in vivo, mouse
Description: Ten-week-old female C57BL/6 mice received a single tail vein injection of 250 mg/kg 5FU in 100 μL PBS. Two hours post 5FU injection, mice were administered daily subcutaneous injections of 5 mg/kg (100 μg per mouse) DJ001 or vehicle in a volume of 100 μL for 8 days. DJ001 injections were prepared in PBS, 50% PEG-400, and 10% DMSO. Corresponding vehicle injections contained PBS, 50% PEG-400, and 10% DMSO. Retro-orbital blood was collected on day + 8, + 11, and + 14 after 5FU treatment with capillary pipettes (Fisher Scientific). Complete blood counts were measured using a Hemavet 950 instrument (Drew Scientific).

[2] = target: T2, Lambda PP (Lambda Protein Phosphatase) (Escherichia phage lambda, UniProt P03772); experiment: PhosphataseProfiler screen: Lambda PP; format: biochemical; conditions: replicates
T2 construct: purchased Eurofins Pharma Discovery Services UK
Description: as §1

[3] = Pharmacokinetic study for DJ001; format: in vivo, mouse; conditions: for concentration of DJ001 in the peripheral blood: 5 mg/kg single subcutaneous dose
Description: PK studies for DJ001 were performed at Cyprotex (Study Number CYP1426-R1) under non-good laboratory practice conditions. Mice were subcutaneously injected with a single dose of 5 mg/kg DJ001 (in 10% DMSO, 40% phosphate-buffered saline (PBS), 50% polyethylene glycol and plasma samples were collected at 0.08, 0.25, 0.5, 1, 2, 4, 8, and 24 h. Samples were crashed with three volumes of methanol and analytical internal standard (propranolol). Supernatant was subjected to liquid chromatography-mass spectrometry/mass spectrometry (MS/MS) using an acetonitrile-water gradient system and electrospray ionization in multiple reaction monitoring mode for MS detection. All plasma samples were compared with an internal calibration curve prepared in mouse blank plasma.

[4] = irradiated human BM CD34+ cells, replicates
[5] = day +8 following 250 mg/kg 5FU, 5 mg/kg DJ001 SQ daily
[6] = day +11 following 250 mg/kg 5FU, 5 mg/kg DJ001 SQ daily
[7] = day +14 following 250 mg/kg 5FU, 5 mg/kg DJ001 SQ daily

T2 sequence (P03772 whole entry): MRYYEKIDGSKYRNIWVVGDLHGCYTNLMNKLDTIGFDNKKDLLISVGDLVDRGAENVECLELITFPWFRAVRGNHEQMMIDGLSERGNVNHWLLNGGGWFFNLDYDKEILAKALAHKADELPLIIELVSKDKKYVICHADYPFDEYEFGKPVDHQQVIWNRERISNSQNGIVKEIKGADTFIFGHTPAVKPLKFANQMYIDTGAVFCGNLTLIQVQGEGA
T1 sequence (P29350 whole entry, species assumed): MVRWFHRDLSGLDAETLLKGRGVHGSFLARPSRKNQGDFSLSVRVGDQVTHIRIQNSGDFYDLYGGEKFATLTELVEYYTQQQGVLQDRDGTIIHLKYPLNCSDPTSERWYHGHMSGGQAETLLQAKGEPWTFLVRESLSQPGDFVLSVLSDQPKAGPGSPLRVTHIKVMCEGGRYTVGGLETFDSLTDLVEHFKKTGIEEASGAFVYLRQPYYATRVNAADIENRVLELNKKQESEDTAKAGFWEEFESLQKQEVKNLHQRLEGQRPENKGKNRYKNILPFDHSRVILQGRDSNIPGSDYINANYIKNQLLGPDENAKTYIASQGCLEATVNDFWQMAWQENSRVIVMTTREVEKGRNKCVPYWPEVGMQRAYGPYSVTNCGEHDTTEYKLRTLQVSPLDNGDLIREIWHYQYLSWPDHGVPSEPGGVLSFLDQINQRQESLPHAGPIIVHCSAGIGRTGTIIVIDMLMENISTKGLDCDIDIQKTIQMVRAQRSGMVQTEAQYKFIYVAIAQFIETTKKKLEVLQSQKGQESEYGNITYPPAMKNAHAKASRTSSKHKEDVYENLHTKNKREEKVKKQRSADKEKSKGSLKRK

O=C(/C=C\Nc1cccc([N+](=O)[O-])c1)c1ccccc1 [DJ001, (Z)-3-((3-nitrophenyl)amino)-1-phenylprop-2-en-1-one]
Supplementary Figure 1: SHP-1 activity ([1]; 2.7 μg/mL DJ001): 81 and 82 and 85
Supplementary Figure 1: SHP-1 activity ([1]; 0.27 g/mL DJ001): 99 (2×) and 102
radiation-induced apoptosis of human CD34+CD38− cells (human CD34+CD38− cells; 24 h after 300 cGy): decreased radiation-induced apoptosis
Figure 5c (left panel): Annexin V/7AAD assay (human CD34+CD38− cells; [4]): 85.79 and 85.23 and 84.4 and 88.36 and 87.91 and 86.9 and 86.4 and 88.8 and 87.8 and 88
Figure 5c (right panel): Annexin V/7AAD assay (human CD34+CD38− cells; [4]): 10.98 and 10.1 and 10.94 and 7.63 and 8.04 and 12.5 and 13.3 and 11 and 12.1 and 11.7
PB NEU counts per mouse (Figure 2i right panel) (C57BL/6 mice; day 0 (pre-5FU)): 0.64 and 0.92 and 0.54 and 0.52
PB WBCs per mouse (Figure 2i left panel) (C57BL/6 mice; day 0 (pre-5FU)): 7.24 and 8.98 and 6.9 and 7.26
PB NEU counts per mouse (Figure 2i right panel) (C57BL/6 mice; [5]): 0.01 (2×) and 0.02 (4×) and 0.03
PB WBCs per mouse (Figure 2i left panel) (C57BL/6 mice; [5]): 0.88 and 0.82 and 0.9 and 1 and 0.86 and 0.8 and 1.44
PB NEU counts per mouse (Figure 2i right panel) (C57BL/6 mice; [6]): 0.08 and 0.14 and 0.11 and 0.12 and 0.07 (2×) and 0.54
PB WBCs per mouse (Figure 2i left panel) (C57BL/6 mice; [6]): 0.78 and 3.32 and 1.78 and 2.76 and 1.44 and 3.6 and 2.12
PB WBCs and neutrophils vs 5FU control (C57BL/6 mice; day +14): significantly increased PB WBCs and neutrophils
PB NEU counts per mouse (Figure 2i right panel) (C57BL/6 mice; [7]): 4.15 and 1.27 and 0.57 and 0.4 and 0.82 and 1.88 and 2.76
PB WBCs per mouse (Figure 2i left panel) (C57BL/6 mice; [7]): 13.36 and 5.12 and 4.72 and 9.58 and 8.92 and 11.92 and 17.98
Supplementary Figure 1: Lambda PP activity ([2]; 0.27 μg/mL DJ001): 126 and 132 and 133
Supplementary Figure 1: Lambda PP activity ([2]; 2.7 μg/mL DJ001): 118 and 122 and 125
concentration of DJ001 in the peripheral blood ([3]; through + 24 hours following administration): approximately 10 ng/ml
concentration of DJ001 in the peripheral blood ([3]; within 1 hour after administration): 100 ng/mL
DJ001 concentrations in the PB ([3]; 5 mg/kg subcutaneously × 1, over several hours post injection): 10 to 100 ng/mL
Supplementary Figure 4f: Concentration ([3]; 0.08 Hours, individual mice): 170 ng/mL and 54.7 ng/mL and 61.1 ng/mL
Supplementary Figure 4f: Concentration ([3]; 0.25 Hours, individual mice): 159 ng/mL and 93.5 ng/mL
Supplementary Figure 4f: Concentration ([3]; 0.5 Hours, individual mice): 113 ng/mL and 133 ng/mL and 60.5 ng/mL
Supplementary Figure 4f: Concentration ([3]; 1 Hours, individual mice): 40.5 ng/mL and 40.7 ng/mL
Supplementary Figure 4f: Concentration ([3]; 2 Hours, individual mice): 35.3 ng/mL and 19.5 ng/mL
Supplementary Figure 4f: Concentration ([3]; 4 Hours, individual mice): 5.8 ng/mL and 6.7 ng/mL
Supplementary Figure 4f: Concentration ([3]; 8 Hours, individual mice): 1.7 ng/mL and 7.8 ng/mL and 12.4 ng/mL
Supplementary Figure 4f: Concentration ([3]; 24 Hours, individual mice): 2.8 ng/mL and 2.3 ng/mL and 8.9 ng/mL
concentration at 0.25 h ([3]; C57BL/6, mouse, plasma, subcutaneous, 5 mg/kg, 0.25 Hours, individual mice, read-out: Supplementary Figure 4f: Concentration): 113 ng/mL
concentration at 1 h ([3]; C57BL/6, mouse, plasma, subcutaneous, 5 mg/kg, 1 Hours, individual mice, read-out: Supplementary Figure 4f: Concentration): 79.5 ng/mL
concentration at 2 h ([3]; C57BL/6, mouse, plasma, subcutaneous, 5 mg/kg, 2 Hours, individual mice, read-out: Supplementary Figure 4f: Concentration): 32.9 ng/mL
concentration at 4 h ([3]; C57BL/6, mouse, plasma, subcutaneous, 5 mg/kg, 4 Hours, individual mice, read-out: Supplementary Figure 4f: Concentration): 6.5 ng/mL
